According to patent US7456214B2, “Chromene-containing compounds with anti-tubulin and vascular targeting activity” (Baylor University, priority 2004, dated 2008):
pIC50: −log10 of the molar value. ≈ marks a conversion by molar mass, not a printed value. Where a name gives a salt, the structure may show the parent alone.

What was measured:
BXPC-3 = assay: Growth inhibition, BXPC-3 pancreas cancer cells (SRB); format: cell-based; settings: Homo sapiens, 48 hours incubation, read-out: GI50 for Cell Line BXPC-3
Experimental: (§1) Newly prepared compounds were evaluated for cytotoxic activity against a variety of cell lines derived from human tumors using an assay system similar to the National Cancer Institute procedure previously described (Monks et al, J. Natl. Cancer Inst., 1991). Briefly, the cell suspensions, diluted according to the particular cell type and the expected target cell density (5,000-40,000 cells per well based on cell growth characteristics), were added by pipet (100 μl) to 96-well microtiter plates. Inoculates were allowed a preincubation time of 24-28 hours at 37° C. for stabilization. Incubation with the inhibitor compounds lasted for 48 hours in […] atmosphere and 100% humidity. Determination of cell growth was performed by in situ fixation of cells, followed by staining with a protein-binding dye sulforhodamine B (SRB), which binds to the basic amino acids of cellular macromolecules. The solubilized stain was measured spectrophotometrically.
(§2) Several compounds were evaluated for cytotoxic activity against […] P388 leukemia cell lines. The effective dose or ED50 value (defined as the effective dosage required to inhibit 50% of cell growth) was measured. These and additional compounds were evaluated in terms of growth inhibitory activity against several other human cancer cell lines including: central nervous system (“CNS”, SF-268), pancreas (BXPC-3), non-small cell lung cancer (“lung-NCS”, NCI-H460), breast (MCF-7), colon (KM20L2), ovarian (OVCAR-3), and prostate (DU-145). The growth inhibition GI50(defined as the dosage required to inhibit tumor cell growth by 50%) is listed for each cell line.

MCF-7 = assay: Growth inhibition, MCF-7 breast cancer cells (SRB); format: cell-based; settings: Homo sapiens, MCF7, 48 hours incubation, read-out: GI50 for Cell Line MCF-7
Experimental: as §1, §2

NCI-H460 = assay: Growth inhibition, NCI-H460 non-small cell lung cancer cells (SRB); format: cell-based; settings: Homo sapiens, 48 hours incubation, read-out: GI50 for Cell Line NCI-H460
Experimental: as §1, §2

SF-268 = assay: Growth inhibition, SF-268 CNS cancer cells (SRB); format: cell-based; settings: Homo sapiens, 48 hours incubation, read-out: GI50 for Cell Line SF-268
Experimental: as §1, §2

P388 leukemia cell lines = assay: In vitro cytotoxicity, P388 leukemia cells (SRB); format: cell-based; settings: for IC50: P388, 48 hours incubation, read-out: ED50 for P-388 Cell Line
Experimental: as §1, §2

purified tubulin = assay: In vitro inhibition of tubulin polymerization; format: biochemical, bovine; settings: 1.5 mg/ml tubulin, 15 min preincubation at 37° C., GTP-induced, 350 nm
Experimental: IC50 values for tubulin polymerization were determined according to a previously described procedure (Bai et al., Cancer Research, 1996). Purified tubulin is obtained from bovine brain cells as previously described (Hamel and Lin, Biochemistry, 1984). Various amounts of inhibitor were preincubated for 15 minutes at 37° C. with purified tubulin. After the incubation period, the reaction was cooled and GTP was added to induce tubulin polymerization. Polymerization was then monitored in a Gilford spectrophotometer at 350 nm. The final reaction mixtures (0.25 ml) contained 1.5 mg/ml tubulin, 0.6 mg/ml microtubule-associated proteins (MAPs), 0.5 mM GTP, 0.5 mM MgCl2, 4% DMSO and 0.1M 4-morpholineethanesulfonate buffer (MES, pH 6.4). IC50 is the amount of inhibitor needed to inhibit tubulin polymerization 50% with respect to the amount of […] that occurs in the absence of inhibitor.

DU-145 = assay: Growth inhibition, DU-145 prostate cancer cells (SRB); format: cell-based; settings: Homo sapiens, 48 hours incubation, read-out: GI50 for Cell Line DU-145
Experimental: as §1, §2

KM20L2 = assay: Growth inhibition, KM20L2 colon cancer cells (SRB); format: cell-based; settings: Homo sapiens, KM-20L2, 48 hours incubation, read-out: GI50 for Cell Line KM20L2
Experimental: as §1, §2

[1] = tested on: MHEC-5T hemangioendothelioma tumor; assay: Inhibition of tumor blood flow, Fluorescent Bead Assay; format: in vivo, SCID mice; settings: 24 hours post-treatment, vessel area per tumor tissue area as percentage of control
Experimental: The antivascular effects of the chromene phosphate prodrug were assessed in tumor-bearing mice using a Fluorescent Bead Assay. A MHEC-5T hemangioendothelioma tumor model was established by subcutaneous injection of 0.5×10^6 cultured transformed cell murine myocardial vascular endothelial cell line (“MHEC5-T”) cells into the right flank of Fox Chase CB-17 Severe Combined Immunodeficient (“SCID”) mice. […] At 24 hours post-treatment, mice were injected intravenously with 0.25 ml of diluted FluoSphere beads (1:6 in physiological saline) in the tail vein, sacrificed after 3 minutes, and tumor was excised for cryosectioning. Tumor cryosections at a thickness of 8 um were directly examined using quantitative fluorescent microscopy. Blood vessels were indicated by blue fluorescence from injected beads. For quantification, image analysis of 3 sections from three tumors treated in each group were examined and vascular shutdown was expressed as vessel area (mm^2) per tumor tissue area (mm^2) as a percentage of the control (“% VAPM”).

SMILES	GI50 (BXPC-3)	GI50 (MCF-7)	GI50 (NCI-H460)	GI50 (SF-268)	pIC50 (purified tubulin)	GI50 (DU-145)	GI50 (KM20L2)	IC50 (P388 leukemia cell lines)	ED50 for P-388 Cell Line (P388 leukemia cell lines; 48 hours incubation)	% VAPM at 10 mg/kg dose ([1]; 10 mg/kg single i.p.)	% VAPM at 100 mg/kg dose ([1]; 100 mg/kg single i.p.)
COc1cc(C(=O)C2=Cc3cccc(O)c3OC2)cc(OC)c1OC [Compound 15, 3-(3′,4′,5′-Trimethoxybenzoyl)-8-hydroxy-2H-chromene]	2.4 µg/mL (≈ 7.01 µM)	0.21 µg/mL (≈ 0.613 µM)	0.044 µg/mL (≈ 0.129 µM)	0.048 µg/mL (≈ 0.14 µM)	5.40 to 5.70	0.026 µg/mL (≈ 0.0759 µM)	4 µg/mL (≈ 11.7 µM)	0.093 µg/mL (≈ 0.272 µM)	–	–	–
COc1cc(C(=O)C2=Cc3ccc(OP(=O)(O)O)c(OP(=O)(O)O)c3OC2)cc(OC)c1OC [Compound 18, 3-(3′,4′,5′-Trimethoxybenzoyl)-7,8-diphosphate-2H-chromene tetrasodium salt]	> 10 µg/mL	4.2 µg/mL	3.5 µg/mL	3.4 µg/mL	< 4.40	2.2 µg/mL	> 10 µg/mL	0.56 µg/mL	–	–	–
COc1ccc2c(c1)OCC(C(=O)c1cc(OC)c(OC)c(OC)c1)=C2 [Compound 8, 3-(3′,4′,5′-Trimethoxybenzoyl)-7-methoxy-2H-chromene]	–	0.27 µg/mL (≈ 0.758 µM)	–	–	5.00 to 5.40	–	–	–	2.04 µg/mL	–	–
COc1ccc2c(c1O)OCC(C(=O)c1cc(OC)c(OC)c(OC)c1)=C2 [Compound 5, 3-(3′,4′,5′-Trimethoxybenzoyl)-7-methoxy-8-hydroxy-2H-chromene]	–	0.055 µg/mL (≈ 0.148 µM)	–	–	5.70 to 6.00	–	–	–	–	80%	90%
COc1cc(C(=O)C2=Cc3cccc(OP(=O)(O)O)c3OC2)cc(OC)c1OC [Compound 16, 3-(3′,4′,5′-Trimethoxybenzoyl)-8-phosphate-2H-chromene disodium salt]	1.6 µg/mL	0.45 µg/mL	0.12 µg/mL	0.058 µg/mL	–	0.046 µg/mL	5.4 µg/mL	0.019 µg/mL	–	–	–

More lines, main results first:

GI50 (BXPC-3)	GI50 (MCF-7)	GI50 (NCI-H460)	GI50 (SF-268)	pIC50 (purified tubulin)	GI50 (DU-145)	GI50 (KM20L2)	SMILES	IC50 (P388 leukemia cell lines)	ED50 for P-388 Cell Line (P388 leukemia cell lines; 48 hours incubation)	% VAPM at 10 mg/kg dose ([1]; 10 mg/kg single i.p.)	% VAPM at 100 mg/kg dose ([1]; 100 mg/kg single i.p.)
0.38 µg/mL (≈ 0.983 µM)	0.56 µg/mL (≈ 1.45 µM)	0.4 µg/mL (≈ 1.04 µM)	0.5 µg/mL (≈ 1.29 µM)	4.70	0.42 µg/mL (≈ 1.09 µM)	0.4 µg/mL (≈ 1.04 µM)	COc1cc2c(cc1OC)OCC(C(=O)c1cc(OC)c(OC)c(OC)c1)=C2 [Compound 13, 3-(3′,4′,5′-Trimethoxybenzoyl)-6,7-dimethoxy-2H-chromene]	2.5 µg/mL (≈ 6.47 µM)	–	–	–
7.1 µg/mL (≈ 19.1 µM)	7.3 µg/mL (≈ 19.6 µM)	5.5 µg/mL (≈ 14.8 µM)	> 10 µg/mL	< 4.40	3.9 µg/mL (≈ 10.5 µM)	> 10 µg/mL	COc1cc2c(cc1O)C=C(C(=O)c1cc(OC)c(OC)c(OC)c1)CO2 [Compound 9, 3-(3′,4′,5′-Trimethoxybenzoyl)-6-hydroxy-7-methoxy-2H-chromene]	28.2 µg/mL (≈ 75.7 µM)	–	–	–
3 µg/mL (≈ 8.37 µM)	0.48 µg/mL (≈ 1.34 µM)	0.34 µg/mL (≈ 0.949 µM)	0.32 µg/mL (≈ 0.893 µM)	4.70 to 5.00	0.23 µg/mL (≈ 0.642 µM)	6.3 µg/mL (≈ 17.6 µM)	COc1cc(C(=O)C2=Cc3ccc(O)c(O)c3OC2)cc(OC)c1OC [Compound 17, 3-(3′,4′,5′-Trimethoxybenzoyl)-7,8-dihydroxy-2H-chromene]	1.8 µg/mL (≈ 5.02 µM)	–	–	–
0.46 µg/mL (≈ 1.19 µM)	0.48 µg/mL (≈ 1.24 µM)	0.37 µg/mL (≈ 0.958 µM)	0.34 µg/mL (≈ 0.88 µM)	4.70	0.16 µg/mL (≈ 0.414 µM)	0.4 µg/mL (≈ 1.04 µM)	COc1cc(C(=O)C2=Cc3ccc(OC)c(OC)c3OC2)cc(OC)c1OC [Compound 12, 3-(3′,4′,5′-Trimethoxybenzoyl)-7,8-dimethoxy-2H-chromene]	0.41 µg/mL (≈ 1.06 µM)	–	–	–
0.43 µg/mL (≈ 1.11 µM)	0.47 µg/mL (≈ 1.22 µM)	0.4 µg/mL (≈ 1.04 µM)	0.4 µg/mL (≈ 1.04 µM)	4.70	0.24 µg/mL (≈ 0.621 µM)	0.37 µg/mL (≈ 0.958 µM)	COc1cc(OC)c2c(c1)OCC(C(=O)c1cc(OC)c(OC)c(OC)c1)=C2 [Compound 14, 3-(3′,4′,5′-Trimethoxybenzoyl)-5,7-dimethoxy-2H-chromene]	16.3 µg/mL (≈ 42.2 µM)	–	–	–
